Laboratory results as given in patent US11420970B1 (NOVARTIS AG, priority 2019, dated 2022).
Read-outs that look alike come from different tables or passages of the source.

Legend:
NSD2 [1-1365] = NSD2 [1-1365] (Homo sapiens (Human), UniProt O96028); assay: LC-MS/MS-based NSD2 enzymatic assay (SAH production); type: biochemical; conditions: read-out: NSD2 IC50
In short: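 SAH formed was measured by LC-MS/MS using d4-SAH as internal standard and an SAH calibration curve. Compounds were preincubated 20 min with NSD2 [1-1365] and SAM; mouse-liver nucleosome then started a 90 min room-temperature reaction (8 nM enzyme, 1 μM SAM, 400 nM nucleosome final, pH 8.0), stopped with TFA.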

[1] = test system: cellular H3K36me2 level in multiple myeloma cell line KMS11 (t(4;14)+); assay: H3K36me2 cellular ELISA assay in KMS11-Par line; type: cell-based; conditions: Homo sapiens, KMS-11, ELISA, read-out: H3K36me2 ELISA in KMS11-Par
In short: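 After 72 h compound exposure, HCl-extracted histones from KMS11 (t(4;14)+) cells were probed by ELISA for H3K36me2 against total H3 with a chemiluminescence read-out. Cells were plated at 1,250/well in Opti-MEM plus B-27 and N2 the day before. A parallel CellTiter-Glo plate tracked viability.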

[2] = test system: cellular H3K36me2 level in thyroid carcinoma cell line CGTH-W-1 (NSD2 E1099K); assay: H3K36me2 cellular ELISA assay in CGTH-W-1 line; type: cell-based; conditions: Homo sapiens, CGTH-W-1, 72 h, read-out: H3K36me2 ELISA in CGTH-W-1
Method: H3K36Me2 Cellular ELISA Assay in CGTH-W-1 Line
An ELISA (enzyme-linked immunosorbent assay) based assay was used to test the ability of candidate compound to reduce cellular H3K36me2 level in thyroid carcinoma cell line CGTH-W-1, carrying NSD2 E1099K gain of function mutation. CGTH-W-1 (DSMZ) cells are maintained in RPM11640 media with 10% FBS and 50 U/ml Penicillin-Streptomycin.
Cells were treated with tested compounds at the desired concentration for 72 hours.
Histone bound plates were washed and blocked with 5% BSA. […] The abundance of H3K36me2 and total H3 was measured by Chemiluminesce on a plate reader. Cell viability was monitored on a parallel seeded plate with CellTiter-Glo reagent (Promega #G7573).

[3] = NSD2 biochemical activity, class symbols
[4] = KMS11-Par line (t(4;14)+), 72 hours treatment

Sequence of NSD2 [1-1365] (O96028 whole entry): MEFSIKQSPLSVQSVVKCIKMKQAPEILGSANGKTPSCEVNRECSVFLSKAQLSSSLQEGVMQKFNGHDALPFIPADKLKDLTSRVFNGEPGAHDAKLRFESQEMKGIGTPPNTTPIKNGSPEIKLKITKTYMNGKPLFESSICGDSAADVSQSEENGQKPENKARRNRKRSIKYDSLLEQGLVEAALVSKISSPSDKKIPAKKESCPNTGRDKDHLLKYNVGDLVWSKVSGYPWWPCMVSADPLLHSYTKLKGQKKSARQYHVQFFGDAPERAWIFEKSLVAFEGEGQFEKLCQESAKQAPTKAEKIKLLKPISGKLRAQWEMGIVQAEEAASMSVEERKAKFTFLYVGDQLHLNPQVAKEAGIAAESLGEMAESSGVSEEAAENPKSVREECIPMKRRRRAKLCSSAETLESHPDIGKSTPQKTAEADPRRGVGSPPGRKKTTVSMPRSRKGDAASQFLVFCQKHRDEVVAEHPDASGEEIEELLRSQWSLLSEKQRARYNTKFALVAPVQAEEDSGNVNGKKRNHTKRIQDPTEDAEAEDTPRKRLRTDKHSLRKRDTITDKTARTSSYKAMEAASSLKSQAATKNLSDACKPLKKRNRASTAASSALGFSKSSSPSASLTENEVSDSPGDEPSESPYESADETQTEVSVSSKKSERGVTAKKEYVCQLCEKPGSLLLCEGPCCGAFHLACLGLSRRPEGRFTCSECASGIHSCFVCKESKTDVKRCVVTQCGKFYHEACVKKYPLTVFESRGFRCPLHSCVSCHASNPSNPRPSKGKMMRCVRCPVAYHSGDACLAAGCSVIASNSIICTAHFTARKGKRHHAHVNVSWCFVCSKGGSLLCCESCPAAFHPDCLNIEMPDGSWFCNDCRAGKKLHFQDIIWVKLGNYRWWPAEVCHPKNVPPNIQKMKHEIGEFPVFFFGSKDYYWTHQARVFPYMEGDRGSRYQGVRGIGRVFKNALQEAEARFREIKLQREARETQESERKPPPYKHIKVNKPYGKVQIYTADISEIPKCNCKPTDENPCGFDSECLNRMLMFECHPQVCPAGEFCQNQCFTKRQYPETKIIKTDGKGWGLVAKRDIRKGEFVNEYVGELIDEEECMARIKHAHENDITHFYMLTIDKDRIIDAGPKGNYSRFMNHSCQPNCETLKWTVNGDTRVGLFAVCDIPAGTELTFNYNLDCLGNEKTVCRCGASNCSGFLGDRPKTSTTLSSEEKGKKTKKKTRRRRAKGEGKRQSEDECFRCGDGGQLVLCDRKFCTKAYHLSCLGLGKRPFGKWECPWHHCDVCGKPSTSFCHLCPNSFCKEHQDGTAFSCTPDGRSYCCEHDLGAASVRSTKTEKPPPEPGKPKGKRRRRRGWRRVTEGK

Structure (SMILES): Nc1ncnc2c1ncn2Cc1cc(-c2ccc(F)c(F)c2)ncc1N1CCC[C@](N)(c2cccc(CF)n2)C1 [Example 226, (R)-9-((5-(3-amino-3-(6-(fluoromethyl)pyridin-2-yl)piperidin-1-yl)-2-(3,4-difluorophenyl)pyridin-4-yl)methyl)-9H-purin-6-amine]
- IC50 (NSD2 [1-1365]): 0.001 to 0.01 µM
- IC50 ([1]; KMS11-Par line, 72 hours): 0.169 µM
- IC50 [2]: 0.0668 µM

Structure (SMILES): COc1ccc(-c2cc(Cn3cnc4c(N)ncnc43)c(N3CCC[C@](N)([C@H](O)C(F)F)C3)cn2)c(Cl)c1 [Example 168, (S)-1-((R)-3-amino-1-(4-((6-amino-9H-purin-9-yl)methyl)-6-(2-chloro-4-methoxyphenyl)pyridin-3-yl)piperidin-3-yl)-2,2-difluoroethan-1-ol]
- IC50 (NSD2 [1-1365]): 0.01 to 1 µM
- IC50 ([1]; KMS11-Par line, 72 hours): 4.78 µM
- IC50 [2]: 0.997 µM

Structure (SMILES): Nc1ncnc2c1ncn2Cc1cc(-c2ccc(F)c(Cl)c2)ncc1N1CCC[C@](N)([C@@H](O)C(F)F)C1 [Example 122, (R)-1-((R)-3-amino-1-(4-((6-amino-9H-purin-9-yl)methyl)-6-(3-chloro-4-fluorophenyl)pyridin-3-yl)piperidin-3-yl)-2,2-difluoroethan-1-ol]
- IC50 (NSD2 [1-1365]; [3]): 0.001 to 0.01 µM
- IC50 [1, 4]: 1.83 µM
- IC50 [2]: 0.496 µM

Structure (SMILES): C[C@H]1COC[C@@H]([C@@]2(N)CCCN(c3cnc(-c4ccc(F)c(F)c4)cc3Cn3cnc4c(N)ncnc43)C2)O1 [Example 288, 9-((5-((R)-3-amino-3-((2R,6S)-6-methyl-1,4-dioxan-2-yl)piperidin-1-yl)-2-(3,4-difluorophenyl)pyridin-4-yl)methyl)-9H-purin-6-amine]
- IC50 (NSD2 [1-1365]): 0.01 to 1 µM
- IC50 ([1]; KMS11-Par line, 72 hours): 5.72 µM
- IC50 [2]: 2.39 µM

Structure (SMILES): Nc1ncnc2c1ncn2Cc1cc(-c2ccc(F)c(F)c2)ncc1N1CCC[C@](N)([C@@H]2COCCO2)C1 [Example 289, 9-((5-((R)-3-amino-3-((R)-1,4-dioxan-2-yl)piperidin-1-yl)-2-(3,4-difluorophenyl)pyridin-4-yl)methyl)-9H-purin-6-amine]
- IC50 (NSD2 [1-1365]): 0.001 to 0.01 µM
- IC50 ([1]; KMS11-Par line, 72 hours): 2.67 µM
- IC50 [2]: 0.492 µM

Structure (SMILES): Nc1ncnc2c1ncn2Cc1cc(-c2ccc(F)c(F)c2)ncc1N1CCC[C@](N)(c2cccc(F)n2)C1 [Example 201, (R)-9-((5-(3-amino-3-(6-fluoropyridin-2-yl)piperidin-1-yl)-2-(3,4-difluorophenyl)pyridin-4-yl)methyl)-9H-purin-6-amine]
- IC50 (NSD2 [1-1365]): 0.001 to 0.01 µM
- IC50 ([1]; KMS11-Par line, 72 hours): 0.286 µM
- IC50 [2]: 0.123 µM

Structure (SMILES): COc1c(F)cc(-c2cc(Cn3cnc4c(N)ncnc43)c(N3CCC[C@](N)(C(O)C(F)F)C3)cn2)cc1F (stereo in doubt) [Example 164, (R)-1-((R)-3-amino-1-(4-((6-amino-9H-purin-9-yl)methyl)-6-(3,5-difluoro-4-methoxyphenyl)pyridin-3-yl)piperidin-3-yl)-2,2-difluoroethan-1-ol]
- IC50 (NSD2 [1-1365]; [3]): 0.001 to 0.01 µM
- IC50 [1, 4]: 1.06 µM
- IC50 [2]: 0.13 µM

Structure (SMILES): COc1cc(F)nc([C@@]2(N)CCCN(c3cnc(-c4ccc(F)c(F)c4)cc3Cn3cnc4c(N)ncnc43)C2)c1 [Example 235, (R)-9-((5-(3-amino-3-(6-fluoro-4-methoxypyridin-2-yl)piperidin-1-yl)-2-(3,4-difluorophenyl)pyridin-4-yl)methyl)-9H-purin-6-amine]
- IC50 (NSD2 [1-1365]): 0.001 to 0.01 µM
- IC50 ([1]; KMS11-Par line, 72 hours): 0.97 µM
- IC50 [2]: 0.705 µM

Structure (SMILES): COc1ccc(-c2cc(Cn3cnc4c(N)ncnc43)c(N3C[C@H](N)C[C@@H](CF)C3)cn2)cc1F [Example 306, 9-((5-((3R,5R)-3-amino-5-(fluoromethyl)piperidin-1-yl)-2-(3-fluoro-4-methoxyphenyl)pyridin-4-yl)methyl)-9H-purin-6-amine]
- IC50 (NSD2 [1-1365]): 0.01 to 1 µM
- IC50 [2]: 6.46 µM

Structure (SMILES): Cn1ncc2cc(-c3cc(Cn4cnc5c(N)ncnc54)c(N4CCCC(N)(c5cccc(Cl)n5)C4)cn3)ccc21 (stereo not drawn) [Example 225, 9-((5-(3-amino-3-(6-chloropyridin-2-yl)piperidin-1-yl)-2-(1-methyl-1H-indazol-5-yl)pyridin-4-yl)methyl)-9H-purin-6-amine]
- IC50 (NSD2 [1-1365]): 0.01 to 1 µM
- IC50 [2]: 1.96 µM

Structure (SMILES): Nc1ncnc2c1ncn2Cc1cc(-c2ccc(F)c(F)c2)ncc1N1CCC[C@](N)(c2cccc(O)n2)C1 [Example 217, (R)-6-(3-amino-1-(4-((6-amino-9H-purin-9-yl)methyl)-6-(3,4-difluorophenyl)pyridin-3-yl)piperidin-3-yl)pyridin-2-ol]
- IC50 (NSD2 [1-1365]): 0.001 to 0.01 µM
- IC50 [2]: 2.24 µM

Structure (SMILES): COc1cccc([C@@]2(N)CCCN(c3cnc(-c4ccc(F)c(F)c4)cc3Cn3cnc4c(N)ncnc43)C2)n1 [Example 178, (R)-9-((5-(3-amino-3-(6-methoxypyridin-2-yl)piperidin-1-yl)-2-(3,4-difluorophenyl)pyridin-4-yl)methyl)-9H-purin-6-amine]
- IC50 (NSD2 [1-1365]): 0.001 to 0.01 µM
- IC50 [2]: 0.23 µM

Structure (SMILES): Cn1cc(C2(N)CCCN(c3cnc(-c4ccc(F)c(F)c4)cc3Cn3cnc4c(N)ncnc43)C2)nn1 (stereo not drawn) [Example 282, 9-((5-(3-amino-3-(1-methyl-1H-1,2,3-triazol-4-yl)piperidin-1-yl)-2-(3,4-difluorophenyl)pyridin-4-yl)methyl)-9H-purin-6-amine]
- IC50 (NSD2 [1-1365]): 0.01 to 1 µM
- IC50 [2]: 1.53 µM

Structure (SMILES): COc1ccc(-c2cc(Cn3cnc4c(N)ncnc43)c(N3CCC[C@](N)(c4cccc(Cl)n4)C3)cn2)cc1 [Example 211, (R)-9-((5-(3-amino-3-(6-chloropyridin-2-yl)piperidin-1-yl)-2-(4-methoxyphenyl)pyridin-4-yl)methyl)-9H-purin-6-amine]
- IC50 (NSD2 [1-1365]): 0.001 to 0.01 µM
- IC50 [2]: 0.387 µM

Structure (SMILES): Nc1ncnc2c1ncn2Cc1cc(-c2ccc(F)cc2)ncc1N1CCC[C@](N)(c2ccc(F)c(C(F)F)n2)C1 [Example 218, (R)-9-((5-(3-amino-3-(6-(difluoromethyl)-5-fluoropyridin-2-yl)piperidin-1-yl)-2-(4-fluorophenyl)pyridin-4-yl)methyl)-9H-purin-6-amine]
- IC50 (NSD2 [1-1365]): 0.01 to 1 µM
- IC50 [2]: 0.101 µM

Structure (SMILES): N#Cc1cccc(C2(N)CCCN(c3cnc(-c4ccc(F)c(F)c4)cc3Cn3cnc4c(N)ncnc43)C2)n1 (stereo not drawn) [Example 208, 6-(3-amino-1-(4-((6-amino-9H-purin-9-yl)methyl)-6-(3,4-difluorophenyl)pyridin-3-yl)piperidin-3-yl)picolinonitrile]
- IC50 (NSD2 [1-1365]): 0.01 to 1 µM
- IC50 [2]: 2.78 µM

Structure (SMILES): Nc1ncnc2c1ncn2Cc1cc(-c2ccc(F)c(F)c2)ncc1N1CCCC(N)(c2cccnn2)C1 (stereo not drawn) [Example 253, 9-((5-(3-amino-3-(pyridazin-3-yl)piperidin-1-yl)-2-(3,4-difluorophenyl)pyridin-4-yl)methyl)-9H-purin-6-amine]
- IC50 (NSD2 [1-1365]): 0.01 to 1 µM
- IC50 [2]: 0.357 µM

Structure (SMILES): Nc1ncnc2c1ncn2Cc1cc(-c2ccc(OC(F)F)cc2)ncc1N1CCCC(N)(c2cccc(Cl)n2)C1 (stereo not drawn) [Example 184, 9-((5-(3-amino-3-(6-chloropyridin-2-yl)piperidin-1-yl)-2-(4-(difluoromethoxy)phenyl)pyridin-4-yl)methyl)-9H-purin-6-amine]
- IC50 (NSD2 [1-1365]): 0.01 to 1 µM
- IC50 [2]: 0.592 µM

Structure (SMILES): Nc1ncnc2c1ncn2Cc1cc(-c2ccc(OC(F)F)c(F)c2)ncc1N1CCCC(N)(c2cccc(Cl)n2)C1 (stereo not drawn) [Example 228, 9-((5-(3-amino-3-(6-chloropyridin-2-yl)piperidin-1-yl)-2-(4-(difluoromethoxy)-3-fluorophenyl)pyridin-4-yl)methyl)-9H-purin-6-amine]
- IC50 (NSD2 [1-1365]): 0.01 to 1 µM
- IC50 [2]: 0.611 µM

Structure (SMILES): Nc1ncnc2c1ncn2Cc1cc(-c2ccc3c(c2)COC3)ncc1N1CCCC(N)(c2cccc(Cl)n2)C1 (stereo not drawn) [Example 179, 9-((5-(3-amino-3-(6-chloropyridin-2-yl)piperidin-1-yl)-2-(1,3-dihydroisobenzofuran-5-yl)pyridin-4-yl)methyl)-9H-purin-6-amine]
- IC50 (NSD2 [1-1365]): 0.01 to 1 µM
- IC50 [2]: 1.42 µM

Structure (SMILES): Cc1cncc([C@@]2(N)CCCN(c3cnc(-c4ccc(F)c(F)c4)cc3Cn3cnc4c(N)ncnc43)C2)n1 [Example 258, (R)-9-((5-(3-amino-3-(6-methylpyrazin-2-yl)piperidin-1-yl)-2-(3,4-difluorophenyl)pyridin-4-yl)methyl)-9H-purin-6-amine]
- IC50 (NSD2 [1-1365]): 0.01 to 1 µM
- IC50 [2]: 0.434 µM

Structure (SMILES): Nc1ncnc2c1ncn2Cc1cc(-c2ccc(F)cc2)ncc1N1CCCC(N)(c2csc(Cl)n2)C1 (stereo not drawn) [Example 281, 9-((5-(3-amino-3-(2-chlorothiazol-4-yl)piperidin-1-yl)-2-(4-fluorophenyl)pyridin-4-yl)methyl)-9H-purin-6-amine]
- IC50 (NSD2 [1-1365]): 0.01 to 1 µM
- IC50 [2]: 0.826 µM

Structure (SMILES): Nc1ncnc2c1ncn2Cc1cc(-c2ccc3c(c2)OCO3)ncc1N1CCCC(N)(c2cccc(Cl)n2)C1 (stereo not drawn) [Example 186, 9-((5-(3-amino-3-(6-chloropyridin-2-yl)piperidin-1-yl)-2-(benzo[d][1,3]dioxo1-5-yl)pyridin-4-yl)methyl)-9H-purin-6-amine]
- IC50 (NSD2 [1-1365]): 0.01 to 1 µM
- IC50 [2]: 0.967 µM
